Source: publication PMC7025332 (Journal of Medicinal Chemistry, 2020)

Legend:
U2OS cells [1] = assay: p53-responsive luciferase reporter assay; assay type: cell-based; conditions: U2OS BP100-luc/CMV-lacZ, 30 μM, 18 h
[2] = Cellular functional assay; assay type: cell-based; conditions: data not shown
MDM2 = MDM2 (Homo sapiens, UniProt Q00987); assay: Fluorescence polarization binding affinity; conditions: methyl to 4-chloro phenyl mutation
HCT-116 p53+/+ cells = assay: MTT assay; assay type: cell-based; conditions: 200 μM, 48 h; for selectivity toward wild-type p53 cells versus p53-deletion cells: HCT-116 p53+/+ vs p53–/–; for suppression of proliferation of wild-type p53 cells: HCT-116 p53+/+
U2OS cells [3] = assay: Western blotting of p21, MDM2 and p53 expression; assay type: cell-based; conditions: 30 μM, 16 h

MDM2, sequence (Q00987 1-150): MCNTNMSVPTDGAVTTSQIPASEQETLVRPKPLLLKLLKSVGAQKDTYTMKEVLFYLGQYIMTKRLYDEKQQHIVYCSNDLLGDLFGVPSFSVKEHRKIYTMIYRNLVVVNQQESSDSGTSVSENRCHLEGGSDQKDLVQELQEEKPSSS

Row | Compound | luciferase activity compared with p53 peptide (U2OS cells [1]) | activity in the cellular functional assay [2] | improvement of Kd (MDM2) | selectivity toward wild-type p53 cells versus p53-deletion cells (HCT-116 p53+/+ cells) | suppression of proliferation of wild-type p53 cells (HCT-116 p53+/+ cells) | MDM2 level (U2OS cells [3]) | p21 level (U2OS cells [3]; compared to control (PBS buffer))
1 | CC(=O)N[C@@H](CC(C)C)CN(CC(=O)N[C@@H](Cc1ccccc1)CN(CC(=O)N[C@@H](CCC(=O)O)CN(CC(=O)N[C@@H](Cc1c[nH]c2ccccc12)CN(CC(=O)N[C@@H](CCCCN)CN(CC(=O)N[C@@H](CC(C)C)CN(CC(=O)N[C@@H](C)CN(CC(N)=O)S(C)(=O)=O)S(=O)(=O)CC(C)C)S(C)(=O)=O)S(C)(=O)=O)S(C)(=O)=O)S(C)(=O)=O)S(=O)(=O)c1ccc(Cl)cc1 [PS4] | marginally increased luciferase activity | none of them is active | ∼fourfold improvement |  |  |  | 
2 | CC(=O)N[C@@H](CC(C)C)CN(CC(=O)N[C@@H](Cc1ccccc1)CN(CC(=O)N[C@@H](CCC(=O)O)CN(CC(=O)N[C@@H](Cc1c[nH]c2ccccc12)CN(CC(=O)N[C@@H](CCCCN)CN(CC(=O)N[C@@H](CC1CCC1)CN(CC(=O)N[C@@H](C)CN(CC(N)=O)S(C)(=O)=O)S(=O)(=O)CC(C)C)S(C)(=O)=O)S(C)(=O)=O)S(C)(=O)=O)S(C)(=O)=O)S(=O)(=O)c1ccc(Cl)cc1 [PS10] | marginally increased luciferase activity | none of them is active |  | more selective toward wild-type p53 cells than p53-deletion cells | suppress proliferation of wild-type p53 cells more efficiently than the p53 peptides |  | 
3 | CC(=O)N[C@@H](CC(C)C)CN(CC(=O)N[C@@H](Cc1ccccc1)CN(CC(=O)N[C@@H](CCC(=O)O)CN1CC(=O)N[C@@H](Cc2c[nH]c3ccccc23)CN(S(C)(=O)=O)CC(=O)N[C@@H](CCCCN)CN(CC(=O)N[C@@H](CC(C)C)CN(CC(=O)N[C@@H](C)CN(CC(N)=O)S(C)(=O)=O)S(=O)(=O)CC(C)C)S(=O)(=O)CCCC/C=C\CCCCS1(=O)=O)S(C)(=O)=O)S(=O)(=O)c1ccc(Cl)cc1 [PS11] |  |  |  | more selective toward wild-type p53 cells than p53-deletion cells | suppress proliferation of wild-type p53 cells more efficiently than the p53 peptides | increased moderately | increased significantly
4 | CC(=O)N[C@@H](CC(C)C)CN(CC(=O)N[C@@H](Cc1ccccc1)CN(CC(=O)N[C@@H](CCC(=O)O)CN1CC(=O)N[C@@H](Cc2c[nH]c3ccccc23)CN(S(C)(=O)=O)CC(=O)N[C@@H](CCCCN)CN(CC(=O)N[C@@H](CC(C)C)CN(CC(=O)N[C@@H](C)CN(CC(N)=O)S(C)(=O)=O)S(=O)(=O)CC(C)C)S(=O)(=O)CC/C=C/CCCCS1(=O)=O)S(C)(=O)=O)S(=O)(=O)c1ccc(Cl)cc1 [PS12] |  |  |  |  |  | increased moderately | 
